Results from patent US7635664B2, “Herbicidal substituted benzoylpyrazoles” (Bayer CropScience AG, priority 2001, dated 2009).

Experiments:
[1] = logP determination by HPLC on reversed-phase column, acidic range; type: physicochemical; settings: for chromatographic logP: reversed-phase C18 HPLC column, pH=2.3; for logP: marked a): acidic range, 0.1% aqueous phosphoric acid/acetonitrile gradient, reversed-phase C 18 HPLC, 43° C.
Source text: (a) Mobile phases for the determination in the acidic range: 0.1% aqueous phosphoric acid, acetonitrile; linear gradient from 10% acetonitrile to 90% acetonitrile—the corresponding measurement results in Table 1 are marked ^a).

[2] = tested on: weeds; test: Pre-emergence test (Example A), weeds; type: in vivo; settings: soil sprayed 24 hours after sowing; rated after three weeks as % damage vs untreated control
Experimental: (§1) To produce a suitable preparation of active compound, 1 part by weight of active compound is mixed with the stated amount of solvent, the stated amount of emulsifier is added and the concentrate is diluted with water to the desired concentration.
Seeds of the test plants are sown in normal soil. After 24 hours, the soil is sprayed with the preparation of active compound such that the particular amount of active compound desired is applied per unit area. The concentration of active compound in the spray liquor is chosen such that the particular amount of active compound desired is applied in 1000 liters of water per hectare.
After three weeks, the degree of damage to the plants is rated in % damage in comparison to the development of the untreated control. The figures denote: • 0%=no effect (like untreated control) • 100%=total destruction

[3] = tested on: weeds; test: Post-emergence test (Example B), weeds; type: in vivo; settings: test plants of a height of 5-15 cm sprayed; rated after three weeks as % damage vs untreated control
Experimental: as §1
Test plants of a height of 5-15 cm are sprayed with the preparation of active compound such that the particular amounts of active compound desired are applied per unit area. The concentration of the spray liquor is chosen such that the particular amounts of active compound desired are applied in 1000 l of water/ha.
After three weeks, the degree of damage to the plants is rated in % damage in comparison to the development of the untreated control.
The figures denote: • 0%=no effect (like untreated control) • 100%=total destruction

Row | SMILES | chromatographic logP [1] | logP [1] | activity against weeds, pre-emergence [2] | activity against weeds, post-emergence [3]
1 | CCn1ncc(C(=O)c2ccc(Cl)c(NC(=O)N3CCN(C)C3=O)c2Cl)c1O [Example 1, N-[2,6-dichloro-3-[(1-ethyl-5-hydroxy-1H-pyrazol-4-yl)-carbonyl]-phenyl]-3-methyl-2-oxo-1-imidazolidinecarboxamide] | 1.58 |  | strong activity | strong activity
2 | CCn1ncc(C(=O)c2ccc(Cl)c(NC(=O)N(C)OC)c2Cl)c1O [Example 2] |  | (I-2) logP = 1,39^a) | strong activity | strong activity
3 | CCn1ncc(C(=O)c2ccc(Cl)c(NC(=O)N3CCCN(C)C3=O)c2Cl)c1O [Example 5] |  | (I-2) logP = 1.83^a) | strong activity | strong activity
4 | CCn1ncc(C(=O)c2ccc(Cl)c(NC(=O)N3CCOCC3)c2Cl)c1O [Example 6] |  | (I-2) logP = 1.13^a) | strong activity | 
5 | CN1CCN(C(=O)Nc2c(Cl)ccc(C(=O)c3cnn(C)c3O)c2Cl)C1=O [Example 4] |  | (I-2) logP = 1.32^a) | strong activity | 
6 | CON(C)C(=O)Nc1c(Cl)ccc(C(=O)c2cnn(C)c2O)c1Cl [Example 3] |  | (I-2) logP = 1.13^a) | strong activity | 
7 | CN1CCCN(C(=O)Nc2c(Cl)ccc(C(=O)c3cnn(C)c3O)c2Cl)C1=O [Example 9] |  | (I-2) logP = 1.55^a) |  | 

Now from value to compound, other results behind:

Row | chromatographic logP [1] | logP [1] | SMILES | activity against weeds, pre-emergence [2] | activity against weeds, post-emergence [3]
8 |  | (I-2) logP = 2.88^a) | CCn1ncc(C(=O)c2ccc(Cl)c(N(C)C(=O)N3CCN(C)C3=O)c2Cl)c1O [Example 171] |  | 
9 |  | (I-2) logP = 2.11^a) | CC(C)N1CCCN(C(=O)Nc2c(Cl)ccc(C(=O)c3cnn(C)c3O)c2Cl)C1=O [Example 33] |  | 
10 |  | (I-2) logP = 1.33^a) | CCn1ncc(C(=O)c2ccc(Cl)c(NC(=O)NCC3CCCO3)c2Cl)c1O (stereo not drawn) [Example 105] |  | 
11 |  | (I-2) logP = 0.99^a) | Cn1ncc(C(=O)c2ccc(Cl)c(NC(=O)NC3CC3)c2Cl)c1O [Example 21] |  | 
12 | 1.94 |  | COC(=O)c1ccc(Cl)c(NC(=O)N2CCN(C)C2=O)c1Cl [IIIa-1, methyl 2,4-dichloro-3-[[(3-methyl-2-oxo-1-imidazolidinyl)-carbonyl]-amino]-benzoate] |  | 
